Laboratory results as given in US11311522B1 (Cavion, Inc., priority 2018, dated 2022).

Key:
[1] = Crossover bioavailability study: adverse events; assay type: in vivo, human; conditions: Any Treatment (Original IR, MR1 or MR2), single 8 mg doses; subjects n (%), N = 15
in vivo = conditions: female, rat, po
[2] = test system: patients with essential tremor; assay: T-CALM: Patient Global Impression of Change (PGIC); assay type: in vivo, human; conditions: for PGIC (rescaled −3 to 3), LS mean (SE) / PGIC, LS mean difference from placebo (95% CI): ANCOVA; for 0 - no change / 1 - minimally improved / 2 - much improved / 3 - very much improved / −1 - minimally worse / −2 - much worse / −3 - very much worse: PGIC
Description: Treatment success as measured by PGIC was summarized using descriptive statistics.

hERG = target: T1, hERG (Homo sapiens, UniProt Q12809); assay: hERG whole-cell voltage-clamp (CHO-K1 cells); assay type: cell-based; conditions: hERG current
T1 construct: expressed in transfected cells; host or cells: CHO-K1
T1 sequence (Q12809 whole entry): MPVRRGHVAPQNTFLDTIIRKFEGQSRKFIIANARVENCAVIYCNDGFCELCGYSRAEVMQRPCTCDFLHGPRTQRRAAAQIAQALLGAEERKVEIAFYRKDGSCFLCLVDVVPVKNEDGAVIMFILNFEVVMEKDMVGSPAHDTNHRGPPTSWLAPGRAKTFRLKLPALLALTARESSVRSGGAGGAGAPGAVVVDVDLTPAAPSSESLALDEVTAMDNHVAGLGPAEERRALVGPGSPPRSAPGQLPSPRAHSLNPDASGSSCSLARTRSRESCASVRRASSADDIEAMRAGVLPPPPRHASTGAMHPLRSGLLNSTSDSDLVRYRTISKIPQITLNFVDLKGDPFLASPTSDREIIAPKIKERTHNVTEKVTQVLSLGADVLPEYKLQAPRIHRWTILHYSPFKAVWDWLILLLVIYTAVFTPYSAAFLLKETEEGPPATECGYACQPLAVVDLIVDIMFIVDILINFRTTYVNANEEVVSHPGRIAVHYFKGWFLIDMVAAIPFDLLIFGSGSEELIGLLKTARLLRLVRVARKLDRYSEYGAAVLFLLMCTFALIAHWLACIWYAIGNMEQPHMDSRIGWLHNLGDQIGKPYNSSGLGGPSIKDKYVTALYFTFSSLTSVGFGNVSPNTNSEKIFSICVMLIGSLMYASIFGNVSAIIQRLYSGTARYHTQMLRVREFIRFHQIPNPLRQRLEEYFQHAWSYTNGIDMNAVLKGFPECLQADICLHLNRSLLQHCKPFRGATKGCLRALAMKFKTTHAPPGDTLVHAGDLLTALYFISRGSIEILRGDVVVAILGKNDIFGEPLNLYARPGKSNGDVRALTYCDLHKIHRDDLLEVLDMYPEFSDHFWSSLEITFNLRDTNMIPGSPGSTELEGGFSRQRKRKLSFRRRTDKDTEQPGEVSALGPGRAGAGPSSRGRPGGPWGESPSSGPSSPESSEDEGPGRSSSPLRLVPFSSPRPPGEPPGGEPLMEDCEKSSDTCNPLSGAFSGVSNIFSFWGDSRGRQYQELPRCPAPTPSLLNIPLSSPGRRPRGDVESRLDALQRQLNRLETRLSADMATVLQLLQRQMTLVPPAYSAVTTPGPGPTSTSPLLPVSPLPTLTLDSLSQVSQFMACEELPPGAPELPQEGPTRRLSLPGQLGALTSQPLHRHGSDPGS

[3] = test system: T2, major CYP isoforms (CYP1A2, CYP3A4, CYP2C8, CYP2C9, CYP2C19, CYP2D6, CYP2B6); assay: CYP inhibition in human liver microsomes; assay type: in vitro ADME; conditions: human liver microsomes; human microsomes
T2 construct: other: human liver microsomes; other: human microsomes

[4] = test system: T3, CYP3A4, CYP2C8, CYP2C9, CYP2D6, CYP1A2, CYP2C19, CYP2B6; assay: CYP inhibition in human liver microsomes; assay type: in vitro ADME; conditions: human, human liver microsomes
T3 construct: other: human liver microsomes; other: human microsomes

[5] = MR2 capsules fed versus fasted PK; assay type: in vivo; conditions: human, plasma, oral, 8 mg, single dose (1×8 mg) of MR2 CX-8998
Description: Subjects will be screened for study eligibility within 28 days before administration of the first dose of study drug. Subjects who meet the study eligibility criteria will be admitted to the clinical research unit in the afternoon of the day before administration of the first dose of study drug (Period 1/Day −1).

[6] = rat, in vivo, 300 mg/kg/day
[7] = test system: patients with essential tremor; assay: T-CALM: TETRAS-PS spiral task (item 6); assay type: in vivo, human
Description: The Archimedes spiral item of the TETRAS-PS subscale (Item 6) incorporates a routine clinical assessment of functional tremor impact into the TETRAS scoring of tremor severity. […] The investigator then asks the subject to copy the spiral. Each hand is tested and scored separately. […] The tremor in the spiral is scored, not the movement of the limb.
Scores for TETRAS-PS subscale item 6 were summed for both hands and the mean change from baseline was calculated for Day 15 and Day 28 (FIG. 4 and Table 4). Statistical significance was calculated by Mann-Whitney non-parametric t-test (two tailed).

CC(C)c1ccc(CC(=O)N[C@H](C)c2ccc(OCC(F)(F)F)cn2)cc1 [CX-8998]
Adverse Event: Abnormal dreams [1]: 3 (20%) | Adverse Event: Any [1]: 11 (73%) | Adverse Event: Dizziness [1]: 5 (33%) | Adverse Event: Euphoric mood [1]: 2 (13%) | Adverse Event: Feeling abnormal [1]: 4 (27%) | Adverse Event: Headache [1]: 5(33%) | Adverse Event: Nervous System [1]: 10 (67%) | Adverse Event: Paresthesias [1]: 7 (47%) | Adverse Event: Psychiatric [1]: 5 (33%) | AUC (in vivo; 10 mg/kg/day): 20.7 µM·h | Tmax (in vivo; 10 mg/kg/day): 3.4 h | AUC (in vivo; 100 mg/kg/day): 94.6 µM·h | AUC (in vivo; 500 mg/kg/day): 219 µM·h | Tmax (in vivo; 500 mg/kg/day): 4.8 h | PGIC Improved, percent ([2]; Day 15): 66.67% | PGIC No Change, number ([2]; Day 15): 11 | PGIC No Change, percent ([2]; Day 15): 28.2% | PGIC Worsened, number ([2]; Day 15): 2 | PGIC Worsened, percent ([2]; Day 15): 5.12% | PGIC (rescaled −3 to 3), Mean (SD) ([2]; Day 15, N = 39): 1 (1.0) | PGIC (rescaled −3 to 3), Median (minimum, maximum) ([2]; Day 15, N = 39): 1 (−2, 3) | PGIC Category 0 No change, patients n (%) ([2]; Day 15, N = 39): 11 (28%) | PGIC Category 1 Minimally improved, patients n (%) ([2]; Day 15, N = 39): 17 (44%) | PGIC Category 2 Much improved, patients n (%) ([2]; Day 15, N = 39): 8 (21%) | PGIC Category 3 Very much improved, patients n (%) ([2]; Day 15, N = 39): 1 (3%) | PGIC Category −1 Minimally worse, patients n (%) ([2]; Day 15, N = 39): 1 (3%) | PGIC Category −2 Much worse, patients n (%) ([2]; Day 15, N = 39): 1 (3%) | PGIC Category −3 Very much worse, patients n (%) ([2]; Day 15, N = 39): 0 | PGIC (rescaled −3 to 3), LS mean (SE) ([2]; Day 15): 0.9 (0.17) | PGIC, LS mean difference from placebo (95% CI) ([2]; Day 15): 0.7 (0.2, 1.1) | PGIC Improved, number ([2]; Day 28): 20 | PGIC Improved, percent ([2]; Day 28): 54.05% | PGIC No Change, number ([2]; Day 28): 14 | PGIC No Change, percent ([2]; Day 28): 37.84% | PGIC Worsened, number ([2]; Day 28): 3 | PGIC Worsened, percent ([2]; Day 28): 8.11% | PGIC Category 0 No change, patients n (%) ([2]; Day 28, N = 39): 14 (36%) | PGIC Category 1 Minimally improved, patients n (%) ([2]; Day 28, N = 39): 10 (26%) | PGIC Category 2 Much improved, patients n (%) ([2]; Day 28, N = 39): 7 (18%) | PGIC Category 3 Very much improved, patients n (%) ([2]; Day 28, N = 39): 3 (8%) | PGIC Category −1 Minimally worse, patients n (%) ([2]; Day 28, N = 39): 1 (3%) | PGIC Category −2 Much worse, patients n (%) ([2]; Day 28, N = 39): 1 (3%) | PGIC Category −3 Very much worse, patients n (%) ([2]; Day 28, N = 39): 1 (3%) | PGIC (rescaled −3 to 3), Mean (SD) ([2]; Day 28, N=37): 1 (1.3) | PGIC (rescaled −3 to 3), Median (minimum, maximum) ([2]; Day 28, N=37): 1 (−3, 3) | PGIC (rescaled −3 to 3), LS mean (SE) ([2]; Day 28): 0.8 (0.19) | PGIC, LS mean difference from placebo (95% CI) ([2]; Day 28): 0.4 (−0.1, 0.9) | 0 - no change ([2]; Day 15): 11 (28%) n (%) | 1 - minimally improved ([2]; Day 15): 17 (44%) n (%) | 2 - much improved ([2]; Day 15): 8 (21%) n (%) | 3 - very much improved ([2]; Day 15): 1 (3%) n (%) | −1 - minimally worse ([2]; Day 15): 1 (3%) n (%) | −2 - much worse ([2]; Day 15): 1 (3%) n (%) | −3 - very much worse ([2]; Day 15): 0 n (%) | 0 - no change ([2]; Day 28): 14 (36%) n (%) | 1 - minimally improved ([2]; Day 28): 10 (26%) n (%) | 2 - much improved ([2]; Day 28): 7 (18%) n (%) | 3 - very much improved ([2]; Day 28): 3 (8%) n (%) | −1 - minimally worse ([2]; Day 28): 1 (3%) n (%) | −2 - much worse ([2]; Day 28): 1 (3%) n (%) | −3 - very much worse ([2]; Day 28): 1 (3%) n (%) | IC50 (hERG): 21 µM | IC20 (hERG; human, CHO-K1 cells expressing hERG): 4 µM | IC50 [3]: > 25 µM | IC50 [4]: 20 to 25 µM | AUC [5]: 7.57 µM·h | Decrease in food consumption [6]: up to 19% | Change from baseline in TETRAS-PS spiral item, mean ([7]; Day 15 (8 mg BID)): −0.41 | Change from baseline in TETRAS-PS spiral item, mean ([7]; Day 28 (10 mg BID)): −0.658
